Laboratory results reported in US10744137B1, “Liquisolid tablet containing combined dose of tadalafil and dapoxetine” (King Abdulaziz University, priority 2020, dated 2020).
Values after ≈ are worked out from the molar mass of the structure shown. Where two headings read alike, the source gives them in different places.

What was measured:
[1] = Solubility studies of TDL and DPX in nonvolatile solvents and distilled water; type: physicochemical
Experimental: Solubility studies of TDL and DPX were determined in various nonvolatile solvents separately as described previously with full details in the literature (Al-Subaie et al., 2015)(Aldawsari et al., 2018)(El-Say et al., 2019). The solvents used in this study were Span® 80, Tween® 80, PEG 400, PEG 200, Labrasol®, Kolliphor® EL, glycerin and distilled water were used.

[2] = DPX, low and variable (El-Say et al., 2019); cited from earlier work

| Compound | solubility ([1]; in distilled water, read-out: Solubility of DPX) [mg/mL] | solubility ([1]; oil or lipid, in Labrasol, read-out: Solubility of DPX) [mg/mL] | oral bioavailability [2] | solubility ([1]; in distilled water, read-out: Solubility of TDL) [mg/mL] | solubility ([1]; organic solvent or mixture, in PEG 200, read-out: Solubility of TDL) [mg/mL] |
| --- | --- | --- | --- | --- | --- |
| CN(C)[C@@H](CCOc1cccc2ccccc12)c1ccccc1 [DPX, dapoxetine] | 35.6 (≈ 117 mM) | 57.7 (≈ 189 mM) | 15-76% |  |  |
| CN1CC(=O)N2[C@H](c3ccc4c(c3)OCO4)c3[nH]c4ccccc4c3C[C@@H]2C1=O [TDL, tadalafil] |  |  |  | 0.049 (≈ 0.126 mM) | 10.1 (≈ 25.9 mM) |
